Several values for one entry are separate records, joined by “and”; a condition that tells them apart may be missing. Equal entries are not always repeated.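 Values below derive from 48-hour exposures of cells grown in 96-well plates, with endpoints linearly interpolated between the two concentrations bracketing the appropriate inhibition level. GI50 = concentration required for 50% inhibition of growth. At the TGI there is no net growth.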
Key:
Experiment in all cases: growth of human tumour cells (NCI), 48 h
EKVX NSCLC = test system: EKVX NSCLC
TK-10 renal = test system: TK-10 renal
HL-60(TB) leukemia = test system: HL-60(TB) leukemia
NCI-H23 lung = test system: NCI-H23 lung
IGROV1 ovarian = test system: IGROV1 ovarian
COLO 205 colon = test system: COLO 205 colon
RPMI-8226 leukemia = test system: RPMI-8226 leukemia
NCI-H522 lung = test system: NCI-H522 lung
SNB-19 CNS = test system: SNB-19 CNS
LOX IMVI melanoma = test system: LOX IMVI melanoma

SMILES	TGI (EKVX NSCLC)	TGI (TK-10 renal)	TGI (HL-60(TB) leukemia)	TGI (NCI-H23 lung)	TGI (IGROV1 ovarian)	TGI (COLO 205 colon)	TGI (RPMI-8226 leukemia)	TGI (NCI-H522 lung)	TGI (SNB-19 CNS)	TGI (LOX IMVI melanoma)	GI50 (EKVX NSCLC)	GI50 (TK-10 renal)	GI50 (HL-60(TB) leukemia)	GI50 (NCI-H23 lung)	GI50 (IGROV1 ovarian)	GI50 (COLO 205 colon)	GI50 (RPMI-8226 leukemia)	GI50 (NCI-H522 lung)	GI50 (SNB-19 CNS)	GI50 (LOX IMVI melanoma)
CC(C)(C)NNC(=O)/C(=C/c1ccc(Oc2ccc(Cl)c(Cl)c2)cc1)NC(=O)c1ccccc1	> 100 µM	> 100 µM	> 100 µM	> 100 µM	> 100 µM	36.8 µM	45.1 µM	> 100 µM	> 100 µM	40.1 µM	–	–	–	–	–	–	–	–	–	–
Nc1c(C(=O)Nc2ccccc2)sc2nc3c(cc12)CCCCCC3	25.2 µM	5.2 µM	4.55 µM	16.4 µM	19.9 µM	1.48 µM	15.7 µM	1.29 µM	24.9 µM	> 49.4 µM	0.591 µM	0.883 µM	0.299 µM	0.65 µM	0.863 µM	0.307 µM	0.379 µM	0.271 µM	0.476 µM	0.772 µM
CCC1=C(C)/C(=C/c2[nH]c(C)c(C(=O)CCCCC(=O)OC)c2C)N=C1c1ccc[nH]1	32 µM	71.1 µM	9.28 µM	55.5 µM	> 63.8 µM	> 100 µM	13.9 µM	6.37 µM	38.4 µM	> 32.3 µM	12.2 µM	24.5 µM	2.53 µM	17.3 µM	21.5 µM	12.6 µM	3.37 µM	2.36 µM	15.1 µM	2.89 µM
S=CN1CCCCC1	> 100 µM	> 100 µM	> 100 µM	> 100 µM	> 100 µM	> 100 µM	> 100 µM	> 100 µM	> 100 µM	> 100 µM	–	–	–	–	–	–	–	–	–	–
Cc1cc2c(c3c1c1ccccc1n3C)C(=O)C=CC2=O	> 100 µM	65 µM	16 µM	31 µM	> 78.2 µM	> 100 µM	26.5 µM	34.7 µM	> 100 µM	35.6 µM	–	–	–	–	–	–	–	–	–	–
COc1ccc(OCC(=O)O)c2c1CCC(C(C)C)C2=O (stereo not given)	> 100 µM	> 100 µM	> 100 µM	> 100 µM	> 100 µM	> 100 µM	> 100 µM	> 100 µM	> 100 µM	> 100 µM	–	–	–	–	–	–	–	–	–	–
CS(=O)(=O)c1ccc(Oc2cc(F)cc(C#N)c2)c2c1[C@H](O)[C@H](F)[C@@H]2F	> 100 µM	> 100 µM	> 100 µM	> 100 µM	> 100 µM	> 100 µM	> 100 µM	> 100 µM	> 100 µM	> 100 µM	> 100 µM	> 100 µM	> 100 µM	> 100 µM	> 100 µM	> 100 µM	> 100 µM	> 100 µM	> 100 µM	> 100 µM
O=C(O)c1ccc(S(=O)(=O)c2ccccc2)c([N+](=O)[O-])c1	> 100 µM	> 100 µM	> 100 µM	> 100 µM	> 100 µM	> 100 µM	> 100 µM	> 100 µM	> 100 µM	> 100 µM	–	–	–	–	–	–	–	–	–	–
COC(=O)/C=C/c1cc(O)c2c(c1)C(C(=O)OC)C(c1ccc(O)c(O)c1)O2 (stereo not given)	78.5 µM and > 100 µM	67.5 µM and > 23.5 µM	0.164 µM and 0.106 µM	54.7 µM and > 100 µM	33.8 µM and > 79.5 µM	29 µM and 12.3 µM	16.5 µM and 10.5 µM	3.45 µM and 0.379 µM	> 100 µM	36 µM and > 67.1 µM	0.851 µM and 0.418 µM	5.24 µM and 1.27 µM	0.0845 µM and 0.0298 µM	0.134 µM and 0.075 µM	0.822 µM and 0.509 µM	4.19 µM and 2.49 µM	0.132 µM	0.0286 µM	0.131 µM and 0.0868 µM	0.17 µM and 0.0633 µM
O=C(Nc1ccc(S(=O)(=O)Nc2nccs2)cc1)c1cccnc1Nc1cccc(Cl)c1	> 100 µM	51.1 µM	78.9 µM	28.5 µM	53 µM	33.2 µM	89.2 µM	28.4 µM	34.4 µM	19.9 µM	18.3 µM	22.8 µM	24.8 µM	12.9 µM	15.4 µM	18 µM	19.8 µM	11 µM	14.7 µM	7.31 µM
O=C(/C=C/c1ccco1)c1ccc(Nc2nc(Nc3ccc(F)cc3)nc(Nc3ccc(Cl)cc3)n2)cc1	> 60.2 µM	> 35.9 µM	98.8 µM	> 63.4 µM	> 81 µM	> 100 µM	> 82.4 µM	> 100 µM	> 70 µM	39.3 µM	> 32.1 µM	10.3 µM	> 42.3 µM	17.9 µM	25.8 µM	12.1 µM	2.75 µM	31.1 µM	34.8 µM	16.1 µM
COc1cc2oc(=O)cc(C)c2cc1[N+](=O)[O-]	> 100 µM	83.6 µM	44 µM	51.5 µM	> 84.8 µM	> 60.6 µM	> 75.3 µM	26.3 µM	> 100 µM	28.6 µM	–	–	–	–	–	–	–	–	–	–
O=C(Nc1ccc(Cl)c([N+](=O)[O-])c1)Nc1nc2ccccc2s1	10.9 µM	12.8 µM	24 µM	9.05 µM	17.4 µM	3.39 µM	10.5 µM	7.33 µM	30.8 µM	21 µM	2.59 µM	4.26 µM	4.48 µM	2.4 µM	3.62 µM	1.78 µM	2.93 µM	2.44 µM	4.87 µM	3.98 µM
CC(C)(C)[OH+][O-].[O-]c1ccc(Cl)cc1C=Nc1ccc(Cl)cc1[O-].[O]=[V]	18.1 µM	73.7 µM	> 100 µM	66.9 µM	14.2 µM	37.6 µM	> 100 µM	25.1 µM	66.2 µM	25.9 µM	2.84 µM	13.8 µM	24.7 µM	20.4 µM	0.542 µM	19.3 µM	6.97 µM	9.12 µM	25.1 µM	5.9 µM

Reference: PubChem BioAssay (NCI)
